Consider ten compounds from US12187759B2, “TLR7 agonists” (Primmune Therapeutics, Inc., priority 2019, dated 2025).

The structures appear in SMILES notation. pEC50: −log10 of the molar value.

The target in one test is T1, human TLR7 (Homo sapiens, UniProt Q9NYK1).
T1 construct: host or cells: HEK293
T1 sequence (Q9NYK1 27-1049): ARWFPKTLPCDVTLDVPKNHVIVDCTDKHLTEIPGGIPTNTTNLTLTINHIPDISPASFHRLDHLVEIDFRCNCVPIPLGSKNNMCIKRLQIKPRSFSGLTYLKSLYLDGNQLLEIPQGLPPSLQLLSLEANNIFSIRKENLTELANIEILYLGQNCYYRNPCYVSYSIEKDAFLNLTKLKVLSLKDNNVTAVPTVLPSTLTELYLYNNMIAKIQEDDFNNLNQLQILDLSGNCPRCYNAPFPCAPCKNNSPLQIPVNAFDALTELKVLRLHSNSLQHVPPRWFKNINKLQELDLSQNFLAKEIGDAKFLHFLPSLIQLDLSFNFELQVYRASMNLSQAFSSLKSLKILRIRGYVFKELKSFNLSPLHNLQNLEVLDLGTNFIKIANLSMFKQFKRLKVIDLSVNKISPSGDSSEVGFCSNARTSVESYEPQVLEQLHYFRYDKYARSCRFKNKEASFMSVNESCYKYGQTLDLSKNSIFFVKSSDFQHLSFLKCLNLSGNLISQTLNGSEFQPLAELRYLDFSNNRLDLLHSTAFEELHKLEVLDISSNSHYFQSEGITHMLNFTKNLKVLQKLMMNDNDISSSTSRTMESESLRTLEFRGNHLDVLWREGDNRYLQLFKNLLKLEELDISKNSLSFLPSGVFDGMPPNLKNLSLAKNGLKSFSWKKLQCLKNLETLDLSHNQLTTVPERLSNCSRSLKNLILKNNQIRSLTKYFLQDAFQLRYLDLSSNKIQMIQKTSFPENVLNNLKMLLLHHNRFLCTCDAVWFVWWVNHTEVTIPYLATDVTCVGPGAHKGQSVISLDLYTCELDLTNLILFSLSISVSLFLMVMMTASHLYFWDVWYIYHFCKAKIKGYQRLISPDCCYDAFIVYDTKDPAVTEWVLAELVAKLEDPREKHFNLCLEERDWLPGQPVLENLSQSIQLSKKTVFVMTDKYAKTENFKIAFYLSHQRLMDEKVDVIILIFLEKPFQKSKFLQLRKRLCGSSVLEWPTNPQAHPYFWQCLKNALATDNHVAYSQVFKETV
In words: TLR7 reporter cell assay (HEK293 cells stably expressing human TLR7 with NF-κB-driven SEAP reporter). It is filed as cell-based. The note with it: 15-24 hours; for Emax at 500 µM: HEK293, 500 μM compound, SEAP activity (OD 650 nm) relative to 28.5 μM resiquimod, read-out: Response at 500 μM Compound as a Percent of Resiquimod Response; for pEC50: fit of SEAP dose response, ymax from 28.5 μM resiquimod. The procedure, abridged:
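HEK293 cells stably expressing human TLR7 with an NF-κB-driven SEAP reporter, treated with compound for 15-24 hours. SEAP read at OD 650 nm. EC50 fitted by nonlinear least squares, maximum set by 28.5 μM resiquimod.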

For test [1], the system named is hPBMCs (Human Peripheral Blood Mononuclear Cells). Nature of the test: Induction of interferon-α in hPBMCs in vitro. The note with it: Homo sapiens, PBMC; for Emax: 24 h, peak IFNα2a as percentage of peak response of standard 2-Amino-7-(cyclopropylmethyl)-9-B-D-xylofuranosyl-7,9-dihydro-1H-purine-6,8-dione, averaged across donors, read-out: IFNrmax, Relative Maximal IFNα2a Production (%); for minimal effective concentration: minimal effective concentration for interferon-α production (generally at least 80 pg/ml above baseline), geometric mean across at least three donors, 24 hours, read-out: Weighted MEC. Type of test: cell-based. An outline of the steps: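 Peripheral blood mononuclear cells from healthy human donors were dispensed into replicate culture wells at 1.0-7.5×10^6 cells per well. They were exposed to test compound for 24 hours at 37° C. in humidified 5% CO2, with untreated wells as controls. Secreted interferon-α was quantified with a multisubtype ELISA or as IFNα2a in a luminex panel. MEC was defined as the lowest concentration giving a significant rise above baseline, generally at least 80 pg/ml. IFNmax was the highest IFN level seen at any tested concentration.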

The pEC50 is the EC50 on a negative log10 scale, so that one unit is a factor of ten. Lower therefore signals a large EC50.

For the compound `C#CCn1c(=O)n([C@@H]2O[C@H](C(=O)NC)C[C@H]2O)c2nc(N)[nH]c(=O)c21` [Compound 42, (2S,4R,5R)-5-(2-Amino-6,8-dioxo-7-(prop-2-yn-1-yl)-1,6,7,8-tetrahydro-9H-purin-9-yl)-4-hydroxy-N-methyltetrahydrofuran-2-carboxamide], on human TLR7, the Emax at 500 µM is less than 5%. In addition, in test [1], the Emax is no more than 10% and the minimal effective concentration was greater than 50 µM.
As to `CC[C@H](O)[C@H]1O[C@@H](n2c(=O)n(CC3CC3)c3c(=O)[nH]c(N)nc32)[C@H](O)[C@H]1F` [Compound 17, 2-Amino-7-(cyclopropylmethyl)-9-((2R,3S,4R,5R)-4-fluoro-3-hydroxy-5-((S)-1-hydroxypropyl)tetrahydrofuran-2-yl)-7,9-dihydro-1H-purine-6,8-dione], on human TLR7, the Emax at 500 µM was 58% and the pEC50 is 3.45. Besides, in test [1], the Emax stood at 185% and the minimal effective concentration is no more than 3.1 µM.
The corresponding values for `CC[C@H](O)[C@H]1O[C@@H](n2c(=O)n(CCC(F)(F)F)c3c(=O)[nH]c(N)nc32)[C@H](O)[C@H]1F` [Compound 27, 2-Amino-9-((2R,3S,4R,5R)-4-fluoro-3-hydroxy-5-((S)-1-hydroxypropyl)tetrahydrofuran-2-yl)-7-(3,3,3-trifluoropropyl)-7,9-dihydro-1H-purine-6,8-dione] are 61%, 3.47, 209% and no more than 1.6 µM.
On the same counts, the results for `C#CCn1c(=O)n([C@@H]2O[C@H]([C@H](C)O)C[C@H]2O)c2nc(N)[nH]c(=O)c21` [Compound 9, 2-Amino-9-((2R,3R,5S)-3-hydroxy-5-((S)-1-hydroxyethyl)tetrahydrofuran-2-yl)-7-(prop-2-yn-1-yl)-7,9-dihydro-1H-purine-6,8-dione] are 58%, 3.74, 191% and 6.2 µM.
With `C#CCn1c(=O)n([C@@H]2O[C@H]([C@@H](O)CNC)C[C@H]2O)c2nc(N)[nH]c(=O)c21` [Compound 16, 2-Amino-9-((2R,3R,5S)-3-hydroxy-5-((S)-1-hydroxy-2-(methylamino)ethyl)tetrahydrofuran-2-yl)-7-(prop-2-yn-1-yl)-7,9-dihydro-1H-purine-6,8-dione], the Emax at 500 µM at human TLR7 is less than 5%. Further, in test [1], the Emax is no more than 10% and the minimal effective concentration is greater than 50 µM.
For the compound `CC[C@H](O)[C@@H]1C[C@@H](O)[C@H](n2c(=O)n(C[C@H](C)O)c3c(=O)[nH]c(N)nc32)O1` (single isomer, unassigned) [Compound 34], at human TLR7, the Emax at 500 µM is 81% and the pEC50 is 3.86. Also, in test [1], the Emax was 272% and the minimal effective concentration was 1.6 µM.
The corresponding values for `CC[C@H](O)[C@@H]1C[C@@H](O)[C@H](n2c(=O)n(CC3CC3)c3c(=O)[nH]c(N)nc32)O1` [Compound 4, 2-Amino-7-(cyclopropylmethyl)-9-((2R,3R,5S)-3-hydroxy-5-((S)-1-hydroxypropyl)tetrahydrofuran-2-yl)-7,9-dihydro-1H-purine-6,8-dione] are 81%, 3.88, 226% and 12.5 µM.
In the case of `C#CCn1c(=O)n([C@@H]2O[C@H](C(N)=O)C[C@H]2O)c2nc(N)[nH]c(=O)c21` [Compound 41, (2S,4R,5R)-5-(2-Amino-6,8-dioxo-7-(prop-2-yn-1-yl)-1,6,7,8-tetrahydro-9H-purin-9-yl)-4-hydroxytetrahydrofuran-2-carboxamide], on human TLR7, the Emax at 500 µM was less than 5%. For the same compound, in test [1], the Emax was no more than 10% and the minimal effective concentration is greater than 50 µM.
On the same counts, the results for `C#CCn1c(=O)n([C@@H]2O[C@H]([C@@H](O)CO)C[C@H]2O)c2nc(N)[nH]c(=O)c21` [Compound 14, 2-Amino-9-((2R,3R,5S)-5-((S)-1,2-dihydroxyethyl)-3-hydroxytetrahydrofuran-2-yl)-7-(prop-2-yn-1-yl)-7,9-dihydro-1H-purine-6,8-dione] are less than 5%, no more than 10% and greater than 50 µM.
`CCCCn1c(=O)n([C@@H]2O[C@H]([C@@H](O)C(F)(F)F)C[C@H]2O)c2nc(N)[nH]c(=O)c21` [Compound 31, 2-Amino-7-butyl-9-((2R,3R,5S)-3-hydroxy-5-((R)-2,2,2-trifluoro-1-hydroxyethyl)tetrahydrofuran-2-yl)-7,9-dihydro-1H-purine-6,8-dione]: at human TLR7, the Emax at 500 µM is 78% and the pEC50 was 3.68. In test [1], the Emax came to 71% and the minimal effective concentration is 6.3 µM.
